According to ChEMBL document CHEMBL5608113, “Targeting of CAF-induced therapy resistance in CRC organoid-stroma co-cultures” (2024):

test system: Colon cancer organoid; assay: Targeting of F14 CAF-induced therapy resistance in O14 CRC organoid-stroma co-culture. Cell viability is reported with Gefitinib.; format: functional, Homo sapiens; conditions: Homo sapiens, Concentration 10 uM; read-out: Cell Viability

Compound | viability at 10 µM [%]
COCc1nc2cnc3cc(-c4c(C)noc4C)c(OC[C@H]4CCNC4)cc3c2n1[C@H](C)c1ccccc1 [GSK778] | 8.04
CNCc1ccccc1-c1csc([C@@H](C)Nc2nc(C)nc3cc(OC)c(OC)cc23)c1 [BAY-293] | 16.6
O=C(O)[C@@H]1[C@@H](Cn2nnc3ccccc3c2=O)CC[C@H]1C(=O)c1ccc(OCCC2CCOCC2)cc1 [BAY-694] | 56
CN1CCN(Cc2cc(NC(=O)c3ccc4c(c3)CN(c3ccccc3)CC4)cc(C(F)(F)F)c2)CC1 | 50.8
Cc1nccc(COC(=O)N2C[C@@H]3[C@@H](CNC(=O)c4ccc5[nH]nnc5c4)[C@@H]3C2)n1 [BI 3017] | 7.21
CN1C[C@H](Nc2cnn(C)c(=O)c2Br)C[C@H](c2ccccc2)C1 | 64.7
Nc1ncnc2c1ccn2[C@@H]1O[C@H]([C@H](O)c2ccccc2)[C@@H](O)[C@H]1O | 14.9
CC(=O)c1c(NS(C)(=O)=O)c2cc(-c3ccc(Cl)cc3)c(-c3ccc(Cl)cc3Cl)nc2n(C)c1=O [MRL-CB1-NC] | 53.2
CCCCN(Cc1ccccc1)C(=O)c1ccc(S(=O)(=O)Nc2ccccc2)cc1 | 48.8
N#CN1CC[C@@H](C(=O)Nc2nc3c(s2)CN(C(=O)CN=[N+]=[N-])CC3)C1 [JYQ88] | 34.4
N#CC1(c2ccccn2)CCN(Cc2cc(C(=O)O)c(=O)n3ccccc23)CC1 [MSD-M1PAM] | 37
Cn1cnc2c(F)c(Nc3ccc(Br)cc3Cl)c(C(=O)NOCCO)cc21 [SELUMETINIB] | 22.1
C[C@H](NC(=O)Nc1cc2[nH]ncc2c(CO)n1)c1ccccn1 [ERKi-NC] | 21.8
CC1CCN(c2ccnc(NCc3cn(C)cn3)n2)CC1 [TP-040] | 55
C=CC(=O)Nc1ccc2[nH]c(=O)n(C3CCN(Cc4ccc(-c5nc6cc[nH]c(=O)c6cc5-c5ccccc5)cc4)CC3)c2c1 [Borussertib] | 14.3

test system: Colon cancer organoid; assay: Targeting of F14 CAF-induced therapy resistance in O23 CRC organoid-stroma co-culture. Cell viability is reported with SN-38.; format: functional, Homo sapiens; conditions: Homo sapiens, Concentration 10 uM; read-out: Cell Viability

Compound | viability at 10 µM [%]
COCc1nc2cnc3cc(-c4c(C)noc4C)c(OC[C@H]4CCNC4)cc3c2n1[C@H](C)c1ccccc1 [GSK778] | 48.8
CNCc1ccccc1-c1csc([C@@H](C)Nc2nc(C)nc3cc(OC)c(OC)cc23)c1 [BAY-293] | 50.2
O=C(O)[C@@H]1[C@@H](Cn2nnc3ccccc3c2=O)CC[C@H]1C(=O)c1ccc(OCCC2CCOCC2)cc1 [BAY-694] | 78.7
CN1CCN(Cc2cc(NC(=O)c3ccc4c(c3)CN(c3ccccc3)CC4)cc(C(F)(F)F)c2)CC1 | 63.3
Cc1nccc(COC(=O)N2C[C@@H]3[C@@H](CNC(=O)c4ccc5[nH]nnc5c4)[C@@H]3C2)n1 [BI 3017] | 76
CN1C[C@H](Nc2cnn(C)c(=O)c2Br)C[C@H](c2ccccc2)C1 | 66.4
Nc1ncnc2c1ccn2[C@@H]1O[C@H]([C@H](O)c2ccccc2)[C@@H](O)[C@H]1O | 68.9
CC(=O)c1c(NS(C)(=O)=O)c2cc(-c3ccc(Cl)cc3)c(-c3ccc(Cl)cc3Cl)nc2n(C)c1=O [MRL-CB1-NC] | 60.4
CCCCN(Cc1ccccc1)C(=O)c1ccc(S(=O)(=O)Nc2ccccc2)cc1 | 63.6
N#CN1CC[C@@H](C(=O)Nc2nc3c(s2)CN(C(=O)CN=[N+]=[N-])CC3)C1 [JYQ88] | 78.4
N#CC1(c2ccccn2)CCN(Cc2cc(C(=O)O)c(=O)n3ccccc23)CC1 [MSD-M1PAM] | 71.9
Cn1cnc2c(F)c(Nc3ccc(Br)cc3Cl)c(C(=O)NOCCO)cc21 [SELUMETINIB] | 48.4
C[C@H](NC(=O)Nc1cc2[nH]ncc2c(CO)n1)c1ccccn1 [ERKi-NC] | 62.2
CC1CCN(c2ccnc(NCc3cn(C)cn3)n2)CC1 [TP-040] | 62.9
C=CC(=O)Nc1ccc2[nH]c(=O)n(C3CCN(Cc4ccc(-c5nc6cc[nH]c(=O)c6cc5-c5ccccc5)cc4)CC3)c2c1 [Borussertib] | 10.6

test system: Colon cancer organoid; assay: Targeting of F14 CAF-induced therapy resistance in O14 CRC organoid-stroma co-culture. Cell viability is reported without Gefitinib.; format: functional, Homo sapiens; conditions: Homo sapiens, Concentration 10 uM; read-out: Cell Viability

Compound | viability at 10 µM [%]
COCc1nc2cnc3cc(-c4c(C)noc4C)c(OC[C@H]4CCNC4)cc3c2n1[C@H](C)c1ccccc1 [GSK778] | 40
CNCc1ccccc1-c1csc([C@@H](C)Nc2nc(C)nc3cc(OC)c(OC)cc23)c1 [BAY-293] | 64
O=C(O)[C@@H]1[C@@H](Cn2nnc3ccccc3c2=O)CC[C@H]1C(=O)c1ccc(OCCC2CCOCC2)cc1 [BAY-694] | 102
CN1CCN(Cc2cc(NC(=O)c3ccc4c(c3)CN(c3ccccc3)CC4)cc(C(F)(F)F)c2)CC1 | 115
Cc1nccc(COC(=O)N2C[C@@H]3[C@@H](CNC(=O)c4ccc5[nH]nnc5c4)[C@@H]3C2)n1 [BI 3017] | 7.82
CN1C[C@H](Nc2cnn(C)c(=O)c2Br)C[C@H](c2ccccc2)C1 | 84.6
Nc1ncnc2c1ccn2[C@@H]1O[C@H]([C@H](O)c2ccccc2)[C@@H](O)[C@H]1O | 14.9
CC(=O)c1c(NS(C)(=O)=O)c2cc(-c3ccc(Cl)cc3)c(-c3ccc(Cl)cc3Cl)nc2n(C)c1=O [MRL-CB1-NC] | 148
CCCCN(Cc1ccccc1)C(=O)c1ccc(S(=O)(=O)Nc2ccccc2)cc1 | 80.8
N#CN1CC[C@@H](C(=O)Nc2nc3c(s2)CN(C(=O)CN=[N+]=[N-])CC3)C1 [JYQ88] | 137
N#CC1(c2ccccn2)CCN(Cc2cc(C(=O)O)c(=O)n3ccccc23)CC1 [MSD-M1PAM] | 84.9
Cn1cnc2c(F)c(Nc3ccc(Br)cc3Cl)c(C(=O)NOCCO)cc21 [SELUMETINIB] | 51.6
C[C@H](NC(=O)Nc1cc2[nH]ncc2c(CO)n1)c1ccccn1 [ERKi-NC] | 71.3
CC1CCN(c2ccnc(NCc3cn(C)cn3)n2)CC1 [TP-040] | 128
C=CC(=O)Nc1ccc2[nH]c(=O)n(C3CCN(Cc4ccc(-c5nc6cc[nH]c(=O)c6cc5-c5ccccc5)cc4)CC3)c2c1 [Borussertib] | 28.5

test system: Colon cancer organoid; assay: Targeting of F14 CAF-induced therapy resistance in O23 CRC organoid-stroma co-culture. Cell viability is reported without Gefitinib.; format: functional, Homo sapiens; conditions: Homo sapiens, Concentration 10 uM; read-out: Cell Viability

Compound | viability at 10 µM [%]
COCc1nc2cnc3cc(-c4c(C)noc4C)c(OC[C@H]4CCNC4)cc3c2n1[C@H](C)c1ccccc1 [GSK778] | 95.6
CNCc1ccccc1-c1csc([C@@H](C)Nc2nc(C)nc3cc(OC)c(OC)cc23)c1 [BAY-293] | 69.8
O=C(O)[C@@H]1[C@@H](Cn2nnc3ccccc3c2=O)CC[C@H]1C(=O)c1ccc(OCCC2CCOCC2)cc1 [BAY-694] | 146
CN1CCN(Cc2cc(NC(=O)c3ccc4c(c3)CN(c3ccccc3)CC4)cc(C(F)(F)F)c2)CC1 | 112
Cc1nccc(COC(=O)N2C[C@@H]3[C@@H](CNC(=O)c4ccc5[nH]nnc5c4)[C@@H]3C2)n1 [BI 3017] | 161
CN1C[C@H](Nc2cnn(C)c(=O)c2Br)C[C@H](c2ccccc2)C1 | 143
Nc1ncnc2c1ccn2[C@@H]1O[C@H]([C@H](O)c2ccccc2)[C@@H](O)[C@H]1O | 97.6
CC(=O)c1c(NS(C)(=O)=O)c2cc(-c3ccc(Cl)cc3)c(-c3ccc(Cl)cc3Cl)nc2n(C)c1=O [MRL-CB1-NC] | 92.4
CCCCN(Cc1ccccc1)C(=O)c1ccc(S(=O)(=O)Nc2ccccc2)cc1 | 125
N#CN1CC[C@@H](C(=O)Nc2nc3c(s2)CN(C(=O)CN=[N+]=[N-])CC3)C1 [JYQ88] | 76.5
N#CC1(c2ccccn2)CCN(Cc2cc(C(=O)O)c(=O)n3ccccc23)CC1 [MSD-M1PAM] | 118
Cn1cnc2c(F)c(Nc3ccc(Br)cc3Cl)c(C(=O)NOCCO)cc21 [SELUMETINIB] | 62.9
C[C@H](NC(=O)Nc1cc2[nH]ncc2c(CO)n1)c1ccccn1 [ERKi-NC] | 94.9
CC1CCN(c2ccnc(NCc3cn(C)cn3)n2)CC1 [TP-040] | 107
C=CC(=O)Nc1ccc2[nH]c(=O)n(C3CCN(Cc4ccc(-c5nc6cc[nH]c(=O)c6cc5-c5ccccc5)cc4)CC3)c2c1 [Borussertib] | 9.17

test system: Colon cancer organoid; assay: Targeting of F14 CAF-induced therapy resistance in O23 CRC organoid-stroma co-culture. Cell viability is reported with Gefitinib.; format: functional, Homo sapiens; conditions: Homo sapiens, Concentration 10 uM; read-out: Cell Viability

Compound | viability at 10 µM [%]
COCc1nc2cnc3cc(-c4c(C)noc4C)c(OC[C@H]4CCNC4)cc3c2n1[C@H](C)c1ccccc1 [GSK778] | 47.2
CNCc1ccccc1-c1csc([C@@H](C)Nc2nc(C)nc3cc(OC)c(OC)cc23)c1 [BAY-293] | 35
O=C(O)[C@@H]1[C@@H](Cn2nnc3ccccc3c2=O)CC[C@H]1C(=O)c1ccc(OCCC2CCOCC2)cc1 [BAY-694] | 53
CN1CCN(Cc2cc(NC(=O)c3ccc4c(c3)CN(c3ccccc3)CC4)cc(C(F)(F)F)c2)CC1 | 64.5
Cc1nccc(COC(=O)N2C[C@@H]3[C@@H](CNC(=O)c4ccc5[nH]nnc5c4)[C@@H]3C2)n1 [BI 3017] | 38.3
CN1C[C@H](Nc2cnn(C)c(=O)c2Br)C[C@H](c2ccccc2)C1 | 68.1
Nc1ncnc2c1ccn2[C@@H]1O[C@H]([C@H](O)c2ccccc2)[C@@H](O)[C@H]1O | 45
CC(=O)c1c(NS(C)(=O)=O)c2cc(-c3ccc(Cl)cc3)c(-c3ccc(Cl)cc3Cl)nc2n(C)c1=O [MRL-CB1-NC] | 48.2
CCCCN(Cc1ccccc1)C(=O)c1ccc(S(=O)(=O)Nc2ccccc2)cc1 | 52.2
N#CN1CC[C@@H](C(=O)Nc2nc3c(s2)CN(C(=O)CN=[N+]=[N-])CC3)C1 [JYQ88] | 45.5
N#CC1(c2ccccn2)CCN(Cc2cc(C(=O)O)c(=O)n3ccccc23)CC1 [MSD-M1PAM] | 64.3
Cn1cnc2c(F)c(Nc3ccc(Br)cc3Cl)c(C(=O)NOCCO)cc21 [SELUMETINIB] | 27.6
C[C@H](NC(=O)Nc1cc2[nH]ncc2c(CO)n1)c1ccccn1 [ERKi-NC] | 40.9
CC1CCN(c2ccnc(NCc3cn(C)cn3)n2)CC1 [TP-040] | 81.4
C=CC(=O)Nc1ccc2[nH]c(=O)n(C3CCN(Cc4ccc(-c5nc6cc[nH]c(=O)c6cc5-c5ccccc5)cc4)CC3)c2c1 [Borussertib] | 7.88
